According to US20140350049A1, “METHODS AND PHARMACEUTICAL COMPOSITIONS FOR THE TREATMENT OF DARIER DISEASE” (INSERM (INSTITUT NATIONAL DE LA SANTE ET DE LA RECHERCHE …, priority 2011, published 2014):

Experiments:
Type in all cases: cell-based, human
[1] = test system: Darier keratinocytes (DK); test: E-cadherin and SERCA2 expression in chaperone-treated Darier keratinocytes; details: DK treated with PBA or Miglustat
Protocol: Treatments with drugs. For ER stress induction, keratinocytes grown in high Ca^2+ (1.2 mM) medium were incubated with thapsigargin (TG, Sigma) at 1 μM for different time periods. For inhibition of SERCA pump in NK, keratinocytes were pretreated with 100 nM of TG for 30 min in low Ca^2+ (0.06 mM) medium. Medium was removed, and cells were incubated in high Ca^2+ (1.2 mM) medium for an additional 4 hours to induce the formation of cell-cell contacts. […] Western-Blot. Keratinocytes were lysed in buffer containing 50 mM Tris (pH8), 120 mM NaCl, 0.5% NP-40, Complete™ protease inhibitors cocktail (Roche) and phosphatase inhibitor cocktail 2 (Sigma) for 30 minutes on ice and pelleted by centrifugation. The supernatant was collected for the quantification of protein amount by the Bradford assay. Equal amounts of soluble protein were added to Laemmli buffer (62.5 mM Tris HCl, pH 6.8, 5% ®-mercaptoethanol, 2% SDS, 10% glycerol, and 0.002% bromophenol blue). Samples were separated by SDS-PAGE and transferred onto Hybond-C extra membrane (GE Healthcare). β-actin immunodetection was used as a loading control. Blots were developed by chemiluminescence (ECL Advance, GE Healthcare or SuperSignal West Dura, Pierce).

[2] = test system: Darier keratinocytes (DK); test: ER morphology in chaperone-treated Darier keratinocytes (immunofluorescence); details: DK pre-treated 24 h with PBA 5 mM or Miglustat 500 μM
Protocol: (§1) Treatments with drugs. For ER stress induction, keratinocytes grown in high Ca^2+ (1.2 mM) medium were incubated with thapsigargin (TG, Sigma) at 1 μM for different time periods. For inhibition of SERCA pump in NK, keratinocytes were pretreated with 100 nM of TG for 30 min in low Ca^2+ (0.06 mM) medium. Medium was removed, and cells were incubated in high Ca^2+ (1.2 mM) medium for an additional 4 hours to induce the formation of cell-cell contacts.
(§2) Immunofluorescence. Keratinocytes were cultured on coverslips, fixed with 4% paraformaldehyde for 30 minutes at room temperature, and permeabilized with 0.2% TritonX-100 in PBS for 10 minutes. After blocking with 1% fetal bovine serum in PBS, cells were incubated with primary antibodies at 4° C. overnight. Subsequently, cells were incubated with the appropriate Alexa-conjugated secondary antibody at room temperature for 1 hour. […]
(§3) Quantification of intracellular compartment volumes and co-localization. For volume quantifications, all Z-series reconstructions were imaged with a pinhole of 1 Airy Unit with an optimal Z-step. […] Each isosurfaced was selected and the volume statistic recorded. Quantification of the co-localization signals was performed using the Metamorph (Molecular Devices) software. In a single optical section, the surface of the red signal (E-cadherin) that merges with a green signal (Calnexin) was calculated.

[3] = test system: Darier keratinocytes (DK); test: Adherens junction formation in chaperone-treated Darier keratinocytes (immunofluorescence); details: for F-actin network organisation / cell shape (polygonal phenotype, characteristic of cell-to-cell adhesion) / staining of AJ components (E-cadherin and catenins) at the plasma membrane: DK pre-treated 24 h with PBA 5 mM or Miglustat 500 μM; for staining of AJ components (E-cadherin and catenins) at the plasma membrane: then 1.2 mM Ca2+
Protocol: (§4) Cell Culture. Keratinocytes were grown in 0.06 mM CaCl2 EpiLife medium (Invitrogen) to 60-80% confluence and then incubated in 1.2 mM CaCl2 EpiLife medium for 4 hours to induce formation of cell-cell contacts. […] Treatments with drugs. For ER stress induction, keratinocytes grown in high Ca^2+ (1.2 mM) medium were incubated with thapsigargin (TG, Sigma) at 1 μM for different time periods. For inhibition of SERCA pump in NK, keratinocytes were pretreated with 100 nM of TG for 30 min in low Ca^2+ (0.06 mM) medium. Medium was removed, and cells were incubated in high Ca^2+ (1.2 mM) medium for an additional 4 hours to induce the formation of cell-cell contacts. […] Immunofluorescence. Keratinocytes were cultured on coverslips, fixed with 4% paraformaldehyde for 30 minutes at room temperature, and permeabilized with 0.2% TritonX-100 in PBS for 10 minutes. After blocking with 1% fetal bovine serum in PBS, cells were incubated with primary antibodies at 4° C. overnight. Subsequently, cells were incubated with the appropriate Alexa-conjugated secondary antibody at room temperature for 1 hour. For actin staining, cells were incubated with phalloidin-TRITC at room temperature for 1 hour. Lastly, coverslips were mounted on glass slides using Vectashield Hard set (Vector laboratories) and examined using a Zeiss LSM 710 confocal microscope with a 40 Plan-Apochromat objective (1.3 oil) or a 63 Plan-Apochromat objective (1.4 oil), together with a 2× zoom.

[4] = test system: Darier keratinocytes (DK); test: ER stress response (eIF2α and IRE1 phosphorylation, Western-Blot) in Darier keratinocytes; details: for TG-induced eIF2α phosphorylation: DK pre-treated 24 h with PBA 5 mM or Miglustat 500 μM
Protocol: (§5) Cell Culture. Keratinocytes were grown in 0.06 mM CaCl2 EpiLife medium (Invitrogen) to 60-80% confluence and then incubated in 1.2 mM CaCl2 EpiLife medium for 4 hours to induce formation of cell-cell contacts.
as §1
(§6) Western-Blot. Keratinocytes were lysed in buffer containing 50 mM Tris (pH8), 120 mM NaCl, 0.5% NP-40, Complete™ protease inhibitors cocktail (Roche) and phosphatase inhibitor cocktail 2 (Sigma) for 30 minutes on ice and pelleted by centrifugation. The supernatant was collected for the quantification of protein amount by the Bradford assay. Equal amounts of soluble protein were added to Laemmli buffer (62.5 mM Tris HCl, pH 6.8, 5% ®-mercaptoethanol, 2% SDS, 10% glycerol, and 0.002% bromophenol blue). Samples were separated by SDS-PAGE and transferred onto Hybond-C extra membrane (GE Healthcare). β-actin immunodetection was used as a loading control. Blots were developed by chemiluminescence (ECL Advance, GE Healthcare or SuperSignal West Dura, Pierce).

[5] = test system: normal keratinocytes (NK); test: Adherens junction formation in TG-pretreated normal keratinocytes (immunofluorescence); details: TG-pretreated NK (100 nM, 30 min) cultured in 1.2 mM Ca2+ for 4 hours
Protocol: as §4, with “Lastly, coverslips were mounted on glass slides using Vectashield Hard set (Vector laboratories) and examined using a Zeiss LSM 710 confocal microscope with a 40 Plan-Apochromat objective (1.3 oil) or a 63 Plan-Apochromat objective (1.4 oil), together with a 2× zoom.” left out

[6] = test system: Darier keratinocytes (DK); test: XBP1 mRNA splicing (RT-PCR) after TG treatment; details: DK compared to NK, TG 1 μM
Protocol: as §1
RT-PCR. RNA was isolated from keratinocytes using TRIzol (Invitrogen) and reverse transcribed using hexamer primers and Moloney murine leukemia virus RT. PCR amplification was performed.

[7] = test system: normal keratinocytes (NK); test: ER volume and cell spreading in TG-treated normal keratinocytes (immunofluorescence, volume quantification); details: TG-treated NK compared to untreated NK
Protocol: as §1, §2, §3

[8] = test system: normal keratinocytes (NK); test: E-cadherin retention in the ER (co-localization with calnexin) in TG-treated normal keratinocytes
Protocol: as §1, §2, §3

[9] = test system: normal keratinocytes (NK); test: ER stress response (eIF2α phosphorylation, Western-Blot) in normal keratinocytes; details: TG 1 μM, high Ca2+ (1.2 mM) medium
Protocol: as §5, §1
as §6, with “Blots were developed by chemiluminescence (ECL Advance, GE Healthcare or SuperSignal West Dura, Pierce).” left out

Row | Structure (SMILES) | E-cadherin expression [1] | SERCA2 expression [1] | ER expansion / perinuclear condensation of the ER [2] | F-actin network organisation [3] | cell shape (polygonal phenotype, characteristic of cell-to-cell adhesion) [3] | staining of AJ components (E-cadherin and catenins) at the plasma membrane [3] | plasma membrane localization of E-cadherin ([3]; DK, lower concentration (100 μM)) | TG-induced eIF2α phosphorylation [4] | effect on E-cadherin localization ([3]; DK, 500 μM, 24 h pre-treatment) | adherens junction (E-cadherin, catenins, F-actin) organisation [5] | spliced, active form of XBP1 mRNA after TG treatment [6] | number of confluent cells per microscopy field [7] | ER volume ([7]; TG 100 nM 30 min) | increase of phospho-eIF2α after exposure to thapsigargin ([4]; DK, TG 1 μM, high Ca2+ (1.2 mM) medium) | IRE1 phosphorylation after exposure to thapsigargin ([4]; DK, TG 1 μM, extent higher than in NK) | E-cadherin intracellular surface overlapping with the calnexin positive compartment [8] | increase of phospho-eIF2α after exposure to thapsigargin [9]
1 | CCCCN1C[C@H](O)[C@@H](O)[C@H](O)[C@H]1CO [Miglustat, 1,5-(butylimino)-1,5-dideoxy-D-glucitol] | neither PBA nor Miglustat increased | neither PBA nor Miglustat increased | Neither TG-induced eIF2α phosphorylation nor ER expansion were reduced | polymerization of the F-actin network | all cells present a polygonal phenotype | a narrow, intense, continuous pericellular staining of all AJ components at the plasma membrane | increased plasma membrane localization of E-cadherin only in a limited number of cells | Neither TG-induced eIF2α phosphorylation nor ER expansion were reduced | – | – | – | – | – | – | – | – | –
2 | CCCCN1C[C@H](O)[C@@H](O)[C@@H](O)[C@H]1CO [NB-DGJ] | – | – | – | – | – | – | – | – | had not effect | – | – | – | – | – | – | – | –
3 | O=C(O)CCCc1ccccc1 [PBA, 4-phenylbutyric acid] | neither PBA nor Miglustat increased | neither PBA nor Miglustat increased | restored perinuclear condensation of the ER | cortical bundles of F-actin parallel and closer to the cell membrane | acquired a pronounced polygonal shape | a linear, sharp and more intense pericellular staining of E-cadherin and catenins | – | decreased | – | – | – | – | – | – | – | – | –
4 | C/C=C(/C)C(=O)O[C@H]1C(C)=C2[C@H]([C@@H]1OC(=O)CCCCCCC)[C@@](C)(OC(C)=O)C[C@H](OC(=O)CCC)[C@@]1(O)[C@H]2OC(=O)[C@@]1(C)O [TG, thapsigargin] | – | – | – | – | – | – | – | – | – | AJ abnormalities similar to those in DK | increased in DK compared to NK | always smaller | two-fold increase | 2- to 3 fold | increased | significant E-cadherin retention in the ER | 1.5 fold
